Source: patent US20120142606A1, “TUMOR TARGETING PEPTIDES, THERAPEUTIC AND DIAGNOSTIC COMPOSITIONS COMPRESSING THE PEPTIDES” (priority 2009, published 2012)

Assays:
MCF7 cells [1] = assay: Peptide binding to MCF7 breast cancer cells by flow cytometry; settings: 0.1-100 μg/ml peptide, 4° C., 20 minutes
Protocol: (§1) To assess peptide binding, MCF7 cells were incubated with increasing doses (0.1-100 μg/ml) of the BK-FITC peptide at 4° C. for 20 minutes. Cells were subsequently washed 4 times with PBS and analyzed by flow cytometry. […] Subsequently, we evaluated the specificity of the BK-peptide for breast cancer cells by incubating MCF7 cells in parallel with human peripheral blood mononuclear cells under the same conditions as mentioned above.
(§2) FIG. 2. […] MCF7 cells (left panel) and human peripheral blood mononuclear cells (PBMC) (right panel) were incubated with increasing doses of peptide for 20 min at 4° C. The cells were subsequently analyzed by flow cytometry for mean fluorescence intensity of FITC, depicted on the y-axis.

White blood cells (WBCs) = assay: Killing of white blood cells (normal cell control), propidium iodide staining and flow cytometry; type: cell-based; settings: 50 μg/ml peptide, 24 h, WBCs from a healthy donor
Protocol: (§3) Next, we examined to what extent the peptide specifically kills MCF7 cells. White blood cells (WBCs) were used as a control for normal non-cancerous cells. WBCs were isolated from a healthy donor by ficoll hypaque gradient centrifugation. Red blood cells were removed using a red blood cell lysis buffer and the remaining WBCs were used for the experiment. MCF7 cells and WBCs were incubated with 50 μg/ml peptide or medium only for 24 h. Cells were collected, stained with propidium iodide (PI) and analyzed for apoptosis by flow cytometry (FIG. 3). The data was analyzed by gating on life PI negative cells which is depicted as % viable cells on the y-axis.

[2] = system: human peripheral blood mononuclear cells; assay: Peptide binding to peripheral blood mononuclear cells by flow cytometry (specificity); settings: 0.1-100 μg/ml peptide, 4° C., 20 minutes
Protocol: as §1, §2

MCF7 cells [3] = assay: Killing of MCF7 cells, propidium iodide staining and flow cytometry; type: cell-based; settings: 50 μg/ml peptide, 24 h
Protocol: as §3

Substance	binding to MCF7 cells, mean fluorescence intensity (MFI) of FITC (MCF7 cells [1])	killing of white blood cells (% viable cells, PI negative) (White blood cells (WBCs))	binding to peripheral blood mononuclear cells, mean fluorescence intensity of FITC [2]	killing of MCF7 cells (% viable cells, PI negative) (MCF7 cells [3])
KLAKLAKKLAKLAK-GG-LTVXPWY (SEQ ID NO:9) conjugated to fluoresceinisothiocyanate (FITC) [BK1-FITC, BK1-peptide conjugated to fluoresceinisothiocyanate]	dose dependent increase in mean fluorescence intensity	–	–	–
KLAKLAKKLAKLAK-GG-LTVXPWY [BK1-peptide]	binds to breast cancer cells	but not white blood cells	did not observe binding	kills MCF7
